Data: US20200390767A1, “Formulations of 4-(7-Hydroxy-2-isopropyl-4-oxo-4H-quinazolin-3-yl)-benzonitrile” (NOVARTIS AG, priority 2019, published 2020)
Like-named read-outs stand apart in the source and are kept apart here.

What was measured:
Type in all cases: in vivo, human
[1] = test system: postoperative ocular pain in patients undergoing photorefractive keratectomy (PRK) surgery; experiment: PRK clinical study, VAS pain severity
Description: The study was a proof of concept, double-masked, randomized, vehicle-controlled study of compound I administered as eye drops in addition to standard of care treatment in patients after PRK surgery. PRK surgery was performed as an outpatient procedure under topical anesthesia with removal of the corneal epithelium to expose the stroma for the laser ablation. Compound I dosing was as single eye drop of 2.5% (0.925 mg/drop), administered four times daily (every six hours) in one eye from immediate post-op (time 0) to last dose at 72 hours.
The study consisted of 2 treatment periods using a crossover design. Patients underwent PRK surgery on 2 separate occasions (periods), one eye at a time. Patients were randomized to receive either compound 1 or vehicle following procedure 1 and the alternate following procedure 2.
Patient subjective experience of pain was recorded using VAS, a numeric assessment of pain between 0 and 100, with 0 representing no pain, and 100 representing worst imaginable pain. […] Since it was important clinically to both decrease the maximum pain as well as the overall pain that the patient experiences during the immediate postoperative period, the two periods of 6 hours and up to 12 hours postoperatively, were evaluated as primary endpoints. All evaluable VAS data was collected using an ePRO, which was an electronic device (cell phone with software application), on which patients marked their pain levels at the appropriate time points.
Rescue oral analgesics: It is not ethical to refuse pain control medication to patients postoperatively as part of a clinical trial. […] Because the use of oral rescue medication may be a potential confounder of the pain VAS evaluation, three approaches were used when analyzing pain VAS scores to account for the influence of pain meds (assuming 4 hours of rescue medication effect): (1) any recorded VAS score within 4 hours after use of rescue medication was considered missing; (2) all the recorded VAS scores was used; and (3) any recorded VAS scores within 4 hours after rescue medication use was imputed by the record taken prior to the rescue medication.
The mean VAS pain severity scores at 6 hours and 0-12 hours post-operatively are presented in Table 22 and Table 23, respectively, and shown in FIG. 3. The primary analysis was performed using the Primary PD analysis set.

[2] = PRK clinical study, residual compound I in bandage contact lens; conditions: Day 4; for concentration at 4 day: human, bandage contact lens extract, topical, 0.925 mg, 0.55 mL extraction fluid
Description: Compound I was quantified in plasma using a validated LC-MS/MS method; the lower limit of quantification (LLOQ) was 0.05 ng/mL. Concentrations were expressed in ng per mL units. When feasible, bandage contact lenses (BCL) exposed to study drug were collected and analyzed for residual drug exposure after treatment (LLOQ: 5.00 ng/mL in 0.55 mL of extraction fluid, or 2.75 ng/BCL). Concentrations below the LLOQ were reported as “zero” and missing data were labeled as such.
Bandage Contact Lens (BCL) was collected from 40 patients on Day 4 of the dose administration and analyzed for compound I. Values from the three IMP non-compliant patients were excluded from BCL summary statistics, leaving 37 values evaluable, including one value from a patient without available plasma PK. The mean concentration of compound I (CV %) in 0.55 mL extraction fluid was 8500 ng/mL (73.1%), with a wide range of 284 to 22600 ng/mL. These concentrations translate to an estimated mean of 4680 ng/lens (0.55 mL×8500 ng/mL), and a range of 156 to 12400 ng/lens. The amount in BCL was very small in relation to the 0.925 mg dose of compound I administered: mean 0.51%, and range of 0.017% to 1.3% of dose.

[3] = test system: PRK surgery patients; experiment: PRK clinical study, adverse events
Source text: Safety assessments consisted of collecting all AEs, SAES, with their severity and relationship to study drug. Only signs and symptoms greater than the listed ranges of either severity or duration were reported as AEs.
Adverse events and serious adverse events included an assessment of both systemic and ocular assessments. Systemic safety assessments included regular assessments of height and weight, vital signs, reporting medication errors including misuse/abuse, pregnancy reporting and early phase safety monitoring. The misuse/abuse, pregnancy reporting and early phase safety monitoring were not assessed for the study. Ocular safety assessments included the following: • Best-corrected visual acuity (BCVA) and uncorrected visual acuity (UCVA): Was measured at each visit using an ETDRS visual acuity chart at 4 meters (13 feet) or 1 meter (for patients that cannot read the 4 meter chart). The BCVA scoring was done based on the number of correctly read letters plus 30. If visual acuity was so poor that the patient could not read any of the largest letters at 1 meter, count fingers and hand movement vision and light perception was tested. • Intraocular Pressure (TOP): IOP measurements were conducted with applanation tonometry or Tonopen. • Dilated fundus exam: The dilated fundus examination included ophthalmoscopic assessments of the vitreous, retina/macula/choroid, and optic nerve. Evaluations for retinal tear/detachment, retinal hemorrhage, vitreous hemorrhage density, vitreous haze grading and abnormal findings were done and scored according to grading criteria. • Ocular hyperemia: Conjunctival redness of the bulbar conjunctiva in each eye at the slit lamp according to the McMonnies redness scale was graded. […] By adjusting the calibrated slit beam width and height, the maximum horizontal (wound width) and vertical dimensions (wound height) of the surgical epithelial wound was estimated. The evaluation was performed until wound closure and report of wound size as 0 horizontal and 0 vertical dimensions. • Slit-lamp biomicroscopy: Ocular signs (eyelids/conjunctiva, cornea, lens, and iris/anterior chamber) was assessed in both eyes by slit lamp biomicroscopy according to the grading criteria. • Blink rate: A blink was defined as a bilateral paroxysmal closure of the eyelids (duration <1 second) in the absence of a provoking external stimulus. Each blink assessment lasted for 2 min (or as close to 2 minutes as possible with minimum time 1 minute) and the obtained blink rate was averaged to calculate blink rate in blinks/min. • Tear production (Schirmer's test without anesthesia): The test was performed without anesthetic in both eyes simultaneously. Tear secretion was measured in millimeters of the length of strip wetted by tears. […] The strip was wetted with 1 drop of sterile saline and flicked to remove excess saline. The patient blinked several times to ensure dispersion of the dye throughout the tear film prior to grading on a scale of 0-3 (0=Normal, No staining; 1=Mild, Superficial stippling micropunctate staining; 2=Moderate, Macropunctate staining with some coalescent areas and 3=Severe, Numerous coalescent macropunctate areas and/or patches) for each of 5 zones (central plus 4 quadrants).
A total of 18 AEs were reported in 10 patients (25% of the 40 enrolled patients) of which twelve occurred after treatment with compound I, five after treatment with Vehicle and one occurred in one patient prior to dosing of the study drug. All AEs were either mild or moderate in severity.

Structure (SMILES): CC(C)c1nc2cc(O)ccc2c(=O)n1-c1ccc(C#N)cc1 [Compound I, 4-(7-hydroxy-2-isopropyl-4-oxo-4H-quinazolin-3-yl)-benzonitrile]
- VAS pain severity score, % Diff ([1]; 0-12 hours post-operatively): −22%
- VAS pain severity score, Diff (compound I-Vehicle) ([1]; 0-12 hours post-operatively): −8.56
- VAS pain severity score, model estimated mean ([1]; 0-12 hours post-operatively, 2.5% four times daily, Primary PD analysis set): 30.90
- VAS pain severity versus Vehicle during the first 18 hours after surgery ([1]; 6 out of the 7 time points, p-value threshold 0.10): statistically significantly lower VAS pain severity scores
- VAS pain severity score, % Diff ([1]; 6 hours post-operatively): −25%
- VAS pain severity score, Diff (compound I-Vehicle) ([1]; 6 hours post-operatively): −11.1
- VAS pain severity score, model estimated mean (SE) ([1]; 6 hours post-operatively, 2.5% four times daily, Primary PD analysis set): 34.63 (4.05)
- mean change in VAS score after instillation of eye drop ([1]; 6.5 hours versus 6 hours post-operative): −3.1
- mean change in VAS score after instillation of eye drop ([1]; 18.5 hours versus 18 hours post-operative): 2.8
- mean change in VAS score after instillation of eye drop ([1]; 24.5 hours versus 24 hours post-operative): 1.3
- amount in BCL in relation to the 0.925 mg dose, mean [2]: 0.51 % of dose
- estimated mean amount in bandage contact lens [2]: 4680 ng/lens
- concentration at 4 day ([2]; read-out: concentration of compound I in bandage contact lens extract, range): 284 to 22600 ng/mL
- concentration at 4 day ([2]; read-out: mean concentration of compound I in bandage contact lens extract): 8500 ng/mL
- deaths, SAEs, discontinuations due to AEs ([3]; 40 enrolled patients): no deaths or SAEs
- eyes (treatment periods) with AEs of moderate severity ([3]; five AEs in four patients): four
- patients who experienced an AE only during this treatment ([3]; human, in vivo): Five
- relation of ocular AEs to study drug ([3]; human, in vivo): None of the AEs were suspected to be related
- patients who developed AEs after treatment ([3]; of 40 patients): Eight
- number of AEs after treatment ([3]; of a total of 18 AEs in 10 patients): twelve
- eyes with ocular AEs (mild severity) ([3]; six ocular AEs in four patients): three
- eyes (treatment periods) with non-ocular AEs ([3]; twelve non-ocular AEs in seven patients): six
